Reference: ChEMBL document CHEMBL1201862, “PubChem BioAssay data set” (2004)
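Step 1: Grow cells in 96-well plates. Step 2: Expose to compound for 48 hours at 5 concentrations. Step 3: Interpolate endpoints linearly; if unreached, use highest concentration. GI50 marks 50% less growth.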 Activity calls are given as the source filed them. Rule as the data show it: active = GI50 up to about 1.1 µM and inactive = higher.

What was measured:
Assay in all cases: NCI-60 cell line screen, 48 h
RXF 631 = tested on: RXF 631
M19-MEL = tested on: M19-MEL
XF498 = tested on: XF498
DMS-273 = tested on: DMS-273
DMS-114 = tested on: DMS-114
DLD-1 = tested on: DLD-1
KM-20L2 = tested on: KM-20L2
SNB-78 = tested on: SNB-78
HOP-18 = tested on: HOP-18

Row | SMILES | GI50 (RXF 631) | GI50 (M19-MEL) | GI50 (XF498) | GI50 (DMS-273) | GI50 (DMS-114) | GI50 (DLD-1) | GI50 (KM-20L2) | GI50 (SNB-78) | GI50 (HOP-18)
1 | c1cc(N(CCn2cccn2)CCn2cccn2)cc(N(CCn2cccn2)CCn2cccn2)c1 | > 100 µM (inactive) | > 100 µM (inactive) | 77.6 µM (inactive) | > 100 µM (inactive) | > 100 µM (inactive) | > 100 µM (inactive) | > 100 µM (inactive) | > 100 µM (inactive) | –
2 | Cc1ccc(S(=O)(=O)N(/N=C(\N)Oc2ccc(Cl)cc2)C(=N)Oc2ccc(Cl)cc2)cc1 | – | > 100 µM (inactive) | > 100 µM (inactive) | > 100 µM (inactive) | > 100 µM (inactive) | > 100 µM (inactive) | > 100 µM (inactive) | > 100 µM (inactive) | > 100 µM (inactive)
3 | CC(=O)O[C@]12CCCCC1C1(O)C(O)CCCCC12 (some centres undefined) | – | > 100 µM (inactive) | – | > 100 µM (inactive) | > 100 µM (inactive) | – | > 100 µM (inactive) | > 100 µM (inactive) | > 100 µM (inactive)
4 | Oc1ccncc1-c1cnccc1O | – | > 100 µM (inactive) | – | > 100 µM (inactive) | > 100 µM (inactive) | > 100 µM (inactive) | – | > 100 µM (inactive) | > 100 µM (inactive)
5 | Cc1cc(C)cc(NC(=O)CCC(=O)C2CCC/C2=N\NC(=O)C(=O)NN)c1 (centres undefined) | > 100 µM (inactive) | > 100 µM (inactive) | > 100 µM (inactive) | > 100 µM (inactive) | > 100 µM (inactive) | > 100 µM (inactive) | > 100 µM (inactive) | – | > 100 µM (inactive)
6 | N#CC(=C1C=CC(=NO)C=C1)c1ccc(Cl)cc1 | – | 15 µM (inactive) | – | 6.58 µM (inactive) | 15.4 µM (inactive) | 14.2 µM (inactive) | 19.7 µM (inactive) | – | 49 µM (inactive)
7 | CC1(C)CC(N2CCN(C3CC(C)(C)NC(C)(C)C3)CC2)CC(C)(C)N1 | > 100 µM (inactive) | – | > 100 µM (inactive) | > 100 µM (inactive) | > 100 µM (inactive) | > 100 µM (inactive) | > 100 µM (inactive) | > 100 µM (inactive) | > 100 µM (inactive)
8 | Cc1ccc(S(=O)(=O)c2ccc(C)cc2[N+](=O)[O-])c([N+](=O)[O-])c1 | – | > 100 µM (inactive) | > 100 µM (inactive) | > 100 µM (inactive) | > 100 µM (inactive) | – | > 100 µM (inactive) | > 100 µM (inactive) | –
9 | C#CCN(Cc1ccc2nc(-c3ccccc3)c(N)nc2c1)c1cc(OC)c(OC)c(OC)c1 | – | 27 µM (inactive) | 30 µM (inactive) | 22.1 µM (inactive) | 14 µM (inactive) | – | 41.3 µM (inactive) | 22.9 µM (inactive) | –
10 | CCOC(=O)N1C/C(=C\c2ccccc2)C(=O)/C(=C/c2ccccc2)C1 | – | 1.57 µM (inactive) | 12.8 µM (inactive) | 2.34 µM (inactive) | 3.27 µM (inactive) | 2.56 µM (inactive) | 7.71 µM (inactive) | 19.8 µM (inactive) | 20.3 µM (inactive)
11 | C=C(COC(C)=O)CC(OC(C)=O)c1ccccc1 (centres undefined) | – | > 100 µM (inactive) | > 100 µM (inactive) | > 100 µM (inactive) | > 100 µM (inactive) | > 100 µM (inactive) | > 100 µM (inactive) | > 100 µM (inactive) | –
12 | COc1cc2c3cc1Oc1c(OC)c(OC)cc4c1[C@@H](Cc1ccc(O)c(c1)Oc1ccc(cc1)C[C@@H]3N(C)CC2)N(C)CC4.c1ccccc1 | – | 13.4 µM (inactive) | 11.4 µM (inactive) | 16.3 µM (inactive) | – | 19.1 µM (inactive) | 5.32 µM (inactive) | 47.1 µM (inactive) | –
13 | CCOC(=O)/C(=C/c1cc(OC)ccc1OC)CC(=O)O | > 100 µM (inactive) | > 100 µM (inactive) | > 39.3 µM (inactive) | > 100 µM (inactive) | > 100 µM (inactive) | > 31.6 µM (inactive) | > 100 µM (inactive) | > 100 µM (inactive) | > 100 µM (inactive)
14 | O=C1NC(=S)NC(=O)C1=Cc1ccc([N+](=O)[O-])o1 | 19.3 µM (inactive) | 19.6 µM (inactive) | 31.6 µM (inactive) | 18.9 µM (inactive) | 17.8 µM (inactive) | 16 µM (inactive) | 20.1 µM (inactive) | 23.5 µM (inactive) | 20.7 µM (inactive)
15 | COc1cc(/C=N/N=C(\N)NO)c(Cl)cc1O | – | 26.6 µM (inactive) | – | – | 24.3 µM (inactive) | > 10 µM (inactive) | – | > 100 µM (inactive) | –
16 | O=C1CC(c2ccccc2)=Nc2ccccc2N1 | – | > 100 µM (inactive) | > 100 µM (inactive) | > 100 µM (inactive) | – | > 100 µM (inactive) | > 100 µM (inactive) | > 100 µM (inactive) | > 100 µM (inactive)
17 | COc1cc(C2C(Cl)C(=O)N2n2cnc3ccccc3c2=O)ccc1O (centres undefined) | – | > 100 µM (inactive) | – | > 100 µM (inactive) | 89.1 µM (inactive) | > 100 µM (inactive) | > 100 µM (inactive) | > 100 µM (inactive) | 56.6 µM (inactive)
18 | O=C1CC(CC(=O)C2CCCCC2=O)C(=O)N1 (centres undefined) | – | > 100 µM (inactive) | > 100 µM (inactive) | > 100 µM (inactive) | > 100 µM (inactive) | > 100 µM (inactive) | > 100 µM (inactive) | > 100 µM (inactive) | > 100 µM (inactive)
19 | [O-][S+]1CSSC1 | 12.3 µM (inactive) | 2.05 µM (inactive) | 15.7 µM (inactive) | 10.9 µM (inactive) | 4.98 µM (inactive) | 18.7 µM (inactive) | 22.8 µM (inactive) | 20.3 µM (inactive) | 51.4 µM (inactive)
20 | COc1ccc(-c2oc3c(OC)c(OC)c(OC)c(O)c3c(=O)c2OC)cc1O | 6.07 µM (inactive) | 0.346 µM (active) | 0.279 µM (active) | < 0.01 µM (active) | 0.0277 µM (active) | 0.432 µM (active) | 12.1 µM (inactive) | 0.0735 µM (active) | –
21 | C/C(=C\Cc1cc(O)ccc1O)CCc1c(C)cc(O)c(C=O)c1C [PANICEIN B3] | – | – | 18.8 µM (inactive) | 20.6 µM (inactive) | 14.7 µM (inactive) | 21.6 µM (inactive) | 39.9 µM (inactive) | – | 17.8 µM (inactive)
22 | O=[N+]([O-])c1ccc(/C=C/c2csnn2)cc1 | – | > 100 µM (inactive) | – | – | > 100 µM (inactive) | > 100 µM (inactive) | – | > 100 µM (inactive) | > 100 µM (inactive)
23 | O=C(/C=C/c1ccc(Cl)c(Cl)c1)c1ccccc1Cl | 15.9 µM (inactive) | 7.18 µM (inactive) | 19.2 µM (inactive) | 6.47 µM (inactive) | 5.3 µM (inactive) | 5.12 µM (inactive) | 9.91 µM (inactive) | 15.5 µM (inactive) | 12.7 µM (inactive)
